Entries after “also recorded” stand apart in the source; their conditions may differ. Where a SMILES comes first, the peptide text is derived from it. [ ]: non-standard residue; d: D form.
Columns and labels:
[1] = system: MUC1-negative 293 cells; assay: Viable cell number by trypan blue exclusion, 293 cells; assay type: cell-based; settings: 5 μM
Method: (§1) FIGS. 4A-E. Selectivity of MUC1/CQC for MUC1 expressing breast cancer cells. (FIG. 4A) ZR-75-1 cells were stably infected with an empty lentivirus (vector) or one expressing a MUC1 siRNA. Lysates for the infected cells were immunoblotted with the indicated antibodies. (FIG. 4B) ZR-75-1/vector cells were left untreated (diamonds), and ZR-75-1/vector (squares) and ZR-75-1/MUC1siRNA (triangles) cells were treated with 5 μM MUC1/CQC peptide for the indicated times. Viable cell number was determined by trypan blue exclusion. (FIG. 4C) 293 cells were left untreated (diamonds), and treated with 5 μM MUC1/CQC (squares) or MUC1/AQA (triangles) for the indicated times. Viable cell number was determined by trypan blue exclusion. (FIG. 4D) MCF-10A cells were left untreated (left panel), and treated with 5 μM MUC1/CQC (middle panel) or MUC1/AQA (right panel). At 3 d, cells were analyzed for cell cycle distribution. […] Viable cell number was determined by trypan blue exclusion.
(§2) Human breast cancer ZR-75-1, ZR-75-1/vector, ZR-75-1/MUC1siRNA (Ren et al., 2004) cell lines were grown in RPMI1640 medium supplemented with 10% heat-inactivated fetal bovine serum (HI-FBS), 100 U/ml penicillin, and 100 μg/ml streptomycin (Invitrogen) in a humidified incubator at 37° C. and 5% CO2. […] Viability was determined by trypan blue exclusion. […]

[2] = system: MCF-10A non-transformed mammary epithelial cell line; assay: Cell cycle distribution and viable cell number, MCF-10A; assay type: cell-based, human; settings: 5 μM
Method: as §1, §2

[3] = system: ZR-75-1/vector cells; assay: Viable cell number by trypan blue exclusion, ZR-75-1/vector; assay type: cell-based, human; settings: 5 μM
Method: as §1, §2

[4] = molecular target: T1, MUC1-C in MCF-7 cells (Homo sapiens, UniProt P15941); assay: Immunoblot of nuclear lysates, MCF-7; assay type: cell-based; settings: MCF-7 nuclear lysates, 5 μM peptide for 3 d
T1 construct: translated as a single polypeptide and cleaved into N- and C-terminal subunits in the endoplasmic reticulum; endogenous in cells; host or cells: ZR-75-1 and MCF-7 human breast cancer cells
T1 sequence (P15941 1098-1255 limits assumed): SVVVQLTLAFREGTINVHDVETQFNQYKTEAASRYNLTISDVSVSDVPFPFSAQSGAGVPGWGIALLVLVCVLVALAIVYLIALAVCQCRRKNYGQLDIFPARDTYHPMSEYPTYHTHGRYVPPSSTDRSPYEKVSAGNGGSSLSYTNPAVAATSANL
Method: FIGS. 2A-C. MUC1/CQC peptide blocks nuclear localization of MUC1-C. (FIG. 2A) ZR-75-1 cells were incubated with 5 μM FITC-labeled MUC1/CQC peptide for the indicated times and then analyzed by flow cytometry. The mean fluorescence index (MFI) is included in each of the panels. (FIGS. 2B-C) ZR-75-1 (FIG. 2B) and MCF-7 (FIG. 2C) cells were incubated in the presence of 5 μM MUC1/CQC or MUC1/AQA peptide for 3 d. Whole cell lysates (WCL) (left panels) and nuclear lysates (right panels) were immunoblotted with the indicated antibodies.
Whole cell and nuclear lysates were prepared as described (Leng et al., 2007). Soluble proteins were subjected to immunoprecipitation with anti-Flag (Sigma, St. Louis, Mo.). Immunoprecitates and soluble proteins were analyzed by immunoblotting with anti-His (Cell Signaling Technology, Danvers, Mass.), anti-GFP (Millipore, Danvers, Mass.), anti-Flag, anti-MUC1-C (Abl; NeoMarkers, Fremont, Calif.), anti-lamin B (EMD, La Jolla, Calif.) or anti-β-actin (Sigma). Reactivity was detected with horseradish peroxidase-conjugated second antibodies and chemiluminescence.
Human ZR-75-1 and MCF-7 breast cancer cells overexpress endogenous MUC1, and thus represent potential models for evaluating effects of the MUC1/CQC peptide (Ramasamy et al., 2007). To assess uptake, the ZR-75-1 cells were incubated with 5 μM FITC-MUC1/CQC peptide (FIG. 2A). […]

[5] = system: MCF-7 cells; assay: Cell cycle distribution and necrosis by flow cytometry, MCF-7; assay type: cell-based, human; settings: MCF-7, 5 μM, 3 and 4 d
Method: FIGS. 3A-D. MUC1/CQC peptide induces S phase arrest and necrosis. ZR-75-1 (FIGS. 3A-B) and MCF-7 (FIGS. 3C-D) cells were treated with 5 μM MUC1/CQC or MUC1/AQA for 3 and 4 d. Cells were fixed and analyzed for cell cycle distribution by flow cytometry (FIGS. 3A and 3C). The percentage of cells in G1, S and G2/M phases is included in the panels. Cells were also stained with propidium iodide and analyzed by flow cytometry for necrosis (FIGS. 3B and 3D). The percentage of necrotic cells is included in the panels.
Cells were harvested, washed with PBS, fixed with 80% ethanol, and incubated in PBS containing 40 μg/ml RNAse and 40 μg/ml propidium iodide for 30 min at 37° C. Cell cycle distribution was determined by flow cytometry. Sub-G1 DNA content was assessed by staining ethanol-fixed and citrate buffer-permeabilized cells with propidium iodide and monitoring by flow cytometry as described (Yin et al., 2007). For assessment of necrosis, cells were incubated with 1 μg/ml propidium iodide/PBS for 5 min at room temperature and then monitored by flow cytometry as described (Yin et al., 2007).
To determine whether the MUC1/CQC peptide affects growth, ZR-75-1 cells were treated with 5 μM MUC1/CQC for 72 h and monitored for cell cycle distribution. […] These findings indicate that the MUC1/CQC peptide inhibits growth and induces necrosis of human breast cancer cells.

In the case of `CC[C@H](C)[C@H](NC(=O)[C@H](CC(=O)O)NC(=O)[C@H](CC(C)C)NC(=O)[C@H](CCC(N)=O)NC(=O)CNC(=O)[C@H](Cc1ccc(O)cc1)NC(=O)[C@H](CC(N)=O)NC(=O)[C@H](CCCCN)NC(=O)[C@H](CCCNC(=N)N)NC(=O)[C@H](CCCNC(=N)N)NC(=O)[C@H](CS)NC(=O)[C@H](CCC(N)=O)NC(=O)[C@H](CS)NC(=O)[C@@H](CCCNC(=N)N)NC(=O)[C@@H](CCCNC(=N)N)NC(=O)[C@@H](CCCNC(=N)N)NC(=O)[C@@H](CCCNC(=N)N)NC(=O)[C@@H](CCCNC(=N)N)NC(=O)[C@@H](CCCNC(=N)N)NC(=O)[C@@H](CCCNC(=N)N)NC(=O)[C@@H](CCCNC(=N)N)NC(=O)[C@H](N)CCCNC(=N)N)C(=O)N[C@@H](Cc1ccccc1)C(=O)N1CCC[C@H]1C(=O)O` [MUC1/CQC] (H-[dR][dR][dR][dR][dR][dR][dR][dR][dR]CQCRRKNYGQLDIFP-OH; N-terminus and C-terminus assumed), the effect on growth [1] is reported as “no apparent effect”, the effect on growth [2] is reported as “no effect; also recorded: little effect” and the “effect on cell cycle distribution” value ([2]; 3 d) is reported as “no effect”. For the same molecule, the “effect on growth (viable cell number)” value [3] was “growth arrest and death”, the “nuclear MUC1-C levels” value [4] was “down-regulation of nuclear MUC1-C levels” and the cell cycle distribution [5] was “arrest of growth in S phase”. For the same molecule, the necrosis [5] was “induction of necrosis”.
